Measurements published in paper PMC9732360, “Discovery and structure of a widespread bacterial ABC transporter specific for ergothioneine” (Nature Communications, 2022).

What was measured:
EgtUA = EgtUA (Streptococcus pneumoniae, UniProt A0A0H2ZLL3)
EfEgtUC = target: T1, EfEgtUC (Enterococcus faecalis, UniProt Q837Z8); test: intrinsic tyrosine fluorescence titration; type: binding; settings: read-out: Ka (M^-1) (converted)
T1 construct: gene egtUBC; N-terminal His6-SUMO cleaved off; expressed in E. coli BL21(DE3)
T1 sequence (Q837Z8 233-505): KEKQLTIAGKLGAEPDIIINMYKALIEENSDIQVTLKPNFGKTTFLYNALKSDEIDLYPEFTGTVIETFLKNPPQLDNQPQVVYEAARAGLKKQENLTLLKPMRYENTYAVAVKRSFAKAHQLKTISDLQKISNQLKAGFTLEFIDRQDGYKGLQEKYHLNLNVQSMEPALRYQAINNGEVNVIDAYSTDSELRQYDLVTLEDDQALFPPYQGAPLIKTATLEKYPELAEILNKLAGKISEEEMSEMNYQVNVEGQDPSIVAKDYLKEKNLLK
Source text: intrinsic tyrosine fluorescence titration on EfEgtUC

SpEgtUC [1] = target: T2, SpEgtUC (Streptococcus pneumoniae, UniProt A0A0H2ZQB9, E375Q); test: biochemical
T2 construct: gene egtUBC

SpEgtUC [2] = target: T3, SpEgtUC (Streptococcus pneumoniae, UniProt A0A0H2ZQB9, G244F); test: biochemical
T3 construct: gene egtUBC

LmEgtUC = target: T4, LmEgtUC (Listeria monocytogenes, UniProt Q8Y775); test: intrinsic tyrosine fluorescence titration; type: binding; settings: read-out: Ka (M^-1) (converted)
T4 construct: gene egtUBC; N-terminal His6-SUMO cleaved off; expressed in E. coli BL21(DE3); the lmo locus tag is of strain EGD-e, strain used printed as 10403S
Source text: intrinsic tyrosine fluorescence titration on LmEgtUC

SpEgtUC [3] = target: T5, SpEgtUC (Streptococcus pneumoniae, UniProt A0A0H2ZQB9, F293Y); test: biochemical
T5 construct: gene egtUBC

SaEgtUC = target: T6, SaEgtUC (Staphylococcus aureus, UniProt A0A0H2XK79); test: intrinsic tyrosine fluorescence titration; type: binding; settings: read-out: Ka (M^-1) (converted)
T6 construct: gene egtUBC; N-terminal His6-SUMO cleaved off; expressed in E. coli BL21(DE3)
T6 sequence (A0A0H2XK79 233-504): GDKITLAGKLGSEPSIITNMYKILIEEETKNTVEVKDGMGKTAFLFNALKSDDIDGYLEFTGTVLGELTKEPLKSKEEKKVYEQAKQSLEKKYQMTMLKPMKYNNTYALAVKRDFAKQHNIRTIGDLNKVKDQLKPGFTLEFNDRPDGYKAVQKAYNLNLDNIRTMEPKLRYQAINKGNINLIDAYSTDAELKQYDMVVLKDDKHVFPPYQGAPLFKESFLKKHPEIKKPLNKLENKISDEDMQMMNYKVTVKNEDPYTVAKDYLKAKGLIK
Source text: intrinsic tyrosine fluorescence titration on SaEgtUC

SpEgtUCCTT = target: T7, SpEgtUCCTT (Streptococcus pneumoniae, UniProt A0A0H2ZQB9, G502V/L503C); test: biochemical
T7 construct: gene egtUBC

SpEgtUC [4] = target: T8, SpEgtUC (Streptococcus pneumoniae, UniProt A0A0H2ZQB9, Y419F); test: biochemical
T8 construct: gene egtUBC

SpEgtUC [5] = target: T9, SpEgtUC (Streptococcus pneumoniae, UniProt A0A0H2ZQB9); test: isothermal titration calorimetry; type: binding; settings: read-out: Ka (M^-1) (converted)
T9 construct: gene egtUBC; N-terminal His6-SUMO cleaved off; expressed in E. coli BL21(DE3); monomer
Source text: isothermal titration calorimetry on SpEgtUC

SpEgtUC [6] = target: T9, SpEgtUC; test: NMR chemical shift perturbation titration; type: binding; settings: read-out: Ka (M^-1) (converted)
Source text: NMR chemical shift perturbation titration on SpEgtUC

T9 sequence (A0A0H2ZQB9 233-506): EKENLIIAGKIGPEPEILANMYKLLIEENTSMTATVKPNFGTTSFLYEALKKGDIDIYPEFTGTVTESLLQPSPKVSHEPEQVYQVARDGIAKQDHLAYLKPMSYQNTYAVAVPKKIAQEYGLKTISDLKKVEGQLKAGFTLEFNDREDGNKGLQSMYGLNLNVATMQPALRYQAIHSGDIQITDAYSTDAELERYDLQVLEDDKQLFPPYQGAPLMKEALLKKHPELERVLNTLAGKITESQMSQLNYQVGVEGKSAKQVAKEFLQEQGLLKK
T8 sequence (A0A0H2ZQB9 233-506 Y419F): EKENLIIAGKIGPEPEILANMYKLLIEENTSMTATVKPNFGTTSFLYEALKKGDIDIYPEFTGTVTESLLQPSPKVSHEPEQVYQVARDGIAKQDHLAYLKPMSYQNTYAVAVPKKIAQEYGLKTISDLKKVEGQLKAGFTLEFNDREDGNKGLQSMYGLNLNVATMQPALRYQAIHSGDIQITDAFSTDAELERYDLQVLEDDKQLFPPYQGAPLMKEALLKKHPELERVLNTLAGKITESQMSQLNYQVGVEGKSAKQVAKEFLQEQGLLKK
T3 sequence (A0A0H2ZQB9 233-506 G244F): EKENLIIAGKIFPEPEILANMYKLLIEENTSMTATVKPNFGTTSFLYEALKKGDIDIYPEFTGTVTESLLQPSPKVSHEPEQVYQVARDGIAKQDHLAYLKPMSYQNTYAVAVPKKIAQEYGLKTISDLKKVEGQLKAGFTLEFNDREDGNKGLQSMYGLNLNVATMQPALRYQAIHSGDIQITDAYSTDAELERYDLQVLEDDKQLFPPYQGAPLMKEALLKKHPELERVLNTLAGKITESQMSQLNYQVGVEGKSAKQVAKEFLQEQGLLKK
T2 sequence (A0A0H2ZQB9 233-506 E375Q): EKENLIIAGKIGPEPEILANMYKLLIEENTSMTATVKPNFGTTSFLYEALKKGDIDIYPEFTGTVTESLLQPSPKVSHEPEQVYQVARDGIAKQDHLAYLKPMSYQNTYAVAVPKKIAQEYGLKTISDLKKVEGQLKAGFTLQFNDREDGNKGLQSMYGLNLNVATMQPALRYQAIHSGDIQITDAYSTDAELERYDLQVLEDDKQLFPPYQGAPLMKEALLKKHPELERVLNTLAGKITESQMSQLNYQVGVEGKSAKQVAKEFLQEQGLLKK
T4 sequence (Q8Y775 231-504): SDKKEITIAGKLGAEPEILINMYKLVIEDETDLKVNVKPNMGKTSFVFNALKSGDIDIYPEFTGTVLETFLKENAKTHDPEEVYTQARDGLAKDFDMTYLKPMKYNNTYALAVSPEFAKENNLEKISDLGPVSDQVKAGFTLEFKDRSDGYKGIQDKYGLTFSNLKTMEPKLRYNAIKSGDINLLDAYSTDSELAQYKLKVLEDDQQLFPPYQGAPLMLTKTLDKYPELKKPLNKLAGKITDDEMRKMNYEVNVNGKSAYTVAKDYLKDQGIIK
T7 sequence (A0A0H2ZQB9 233-503 G502V/L503C): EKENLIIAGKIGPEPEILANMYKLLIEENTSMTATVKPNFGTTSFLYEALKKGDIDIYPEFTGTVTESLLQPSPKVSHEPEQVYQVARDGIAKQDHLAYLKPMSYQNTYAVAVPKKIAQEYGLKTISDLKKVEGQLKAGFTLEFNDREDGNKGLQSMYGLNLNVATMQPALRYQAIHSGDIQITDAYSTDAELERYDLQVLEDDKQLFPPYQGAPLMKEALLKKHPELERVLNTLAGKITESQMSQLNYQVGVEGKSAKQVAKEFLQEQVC
EgtUA, sequence (A0A0H2ZLL3 whole entry): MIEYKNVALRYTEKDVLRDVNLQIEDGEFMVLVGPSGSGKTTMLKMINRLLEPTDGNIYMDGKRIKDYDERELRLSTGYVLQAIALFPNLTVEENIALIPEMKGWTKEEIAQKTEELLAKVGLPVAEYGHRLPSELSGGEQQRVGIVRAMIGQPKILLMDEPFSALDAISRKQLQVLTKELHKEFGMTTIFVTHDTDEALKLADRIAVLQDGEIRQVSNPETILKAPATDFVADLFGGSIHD
T5 sequence (A0A0H2ZQB9 233-506 F293Y): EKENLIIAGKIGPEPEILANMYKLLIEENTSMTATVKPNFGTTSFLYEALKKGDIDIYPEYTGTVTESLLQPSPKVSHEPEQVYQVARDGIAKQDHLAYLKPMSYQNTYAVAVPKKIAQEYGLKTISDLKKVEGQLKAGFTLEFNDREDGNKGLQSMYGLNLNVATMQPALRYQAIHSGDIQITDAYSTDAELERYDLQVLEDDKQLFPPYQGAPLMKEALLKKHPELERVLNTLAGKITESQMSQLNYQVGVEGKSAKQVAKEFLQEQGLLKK

With `Nc1ncnc2c1ncn2[C@@H]1O[C@H](COP(=O)(O)OP(=O)(O)OP(=O)(O)O)[C@@H](O)[C@H]1O` [ATP] the “in vitro ATPase activity” value (EgtUA) was “ATPase activity of WT vs. mutant EgtUA proteins in vitro”.

`C[N+](C)(C)[C@@H](Cc1c[nH]c(=S)[nH]1)C(=O)[O-]` [ET, L-ergothioneine] gave a Kd (EfEgtUC) of 0.0625 µM, a Kd (SpEgtUC [1]) of 25 µM and a Kd (SpEgtUC [2]) of 5 µM. The Kd (LmEgtUC) was 0.0556 µM, the Kd (SpEgtUC [3]) was 0.5 µM and the Kd (SaEgtUC) was 0.217 µM. The Kd (SpEgtUCCTT) was 0.0526 µM, the Kd (SpEgtUC [4]) was 0.625 µM and the Kd (SpEgtUC [5]) was 0.0588 µM.

For `C[N+](C)(C)CC(=O)[O-]` [GB, glycine betaine], the Kd (SpEgtUC [6]) was > 33300 µM.

Work on `C[N+](C)(C)[C@@H](Cc1cnc[nH]1)C(=O)[O-]` [HER, L-hercynine] yielded a Kd (SpEgtUC [6]) of 1670 µM.
